Test results from patent US20260294922A1, “Inhibitors of JUN N-Terminal Kinases (JNK1, JNK2, and/or JNK3) and Mitogen-Activated Protein Kinases (MAPK8, MAPK9, and/or MAPK10) and Methods of Using Same” (Baylor College of Medicine, priority 2023, published 2026).
Values after ≈ are worked out from the molar mass of the structure shown. Read-outs that look alike come from different tables or passages of the source.

Experiments:
JNK1 [1] = biological target: T1, JNK1 (Homo sapiens, UniProt P45983); experiment: JNK1 kinase (intrinsic ATPase, Kinase-Glo) assay; assay type: biochemical
T1 sequence (P45983 whole entry): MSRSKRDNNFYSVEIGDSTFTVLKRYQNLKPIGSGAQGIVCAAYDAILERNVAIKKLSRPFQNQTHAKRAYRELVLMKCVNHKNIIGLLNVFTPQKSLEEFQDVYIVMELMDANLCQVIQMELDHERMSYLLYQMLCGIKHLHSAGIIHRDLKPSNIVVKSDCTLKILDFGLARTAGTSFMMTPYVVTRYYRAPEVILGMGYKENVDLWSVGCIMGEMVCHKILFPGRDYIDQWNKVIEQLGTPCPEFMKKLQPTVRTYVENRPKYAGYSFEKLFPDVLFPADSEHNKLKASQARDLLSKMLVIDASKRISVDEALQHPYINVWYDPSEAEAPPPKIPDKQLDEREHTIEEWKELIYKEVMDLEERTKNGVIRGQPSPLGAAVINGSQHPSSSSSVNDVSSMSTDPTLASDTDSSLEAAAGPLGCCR
Method: JNK1, JNK2, and JNK3 hydrolyze ATP to ADP without any peptide substrates. This allows a very robust and fast endpoint assay where the remaining concentration of ATP is measured (BMG ClarioStar Plus plate reader) using the Kinase-Glo Assay kit from Promega (V6711). A luminescence signal is measured, which is produced by the catalytic conversion of beetle luciferin to oxyluciferin by luciferase. Potential inhibition of luciferase (i.e., false negatives) is easily detected, because assays without kinase are always included, and less ATP than is present in this control reaction could also indicate an inhibition of luciferase, which can be excluded by a counter screen with only luciferase.
To mitigate violation of the linear initial velocity principle, which is a problem in end-point assays when doing dose-responses, the enzyme concentration was carefully optimized, in a total assay volume of 25 μL. […] The kinase reaction was done for 30 or 60 min at 30° C., and detection of leftover ATP was measured according to Promega's protocol. […] Fractional activities were obtained from normalized data. Non-linear regression (GraphPad Prism7) and a modified Morrison equation for tight binding was used to determine apparent Ki values for inhibitors, assuming no particular mode of inhibition. An orthogonal binding assay (LanthaScreen) was outsourced to ThermoFisher Scientific's SelectScreen Services to determine IC50 values.

JNK2 [2] = biological target: T2, JNK2 (Homo sapiens, UniProt P45984); experiment: JNK2 kinase (intrinsic ATPase, Kinase-Glo) assay; assay type: biochemical
T2 sequence (P45984 whole entry): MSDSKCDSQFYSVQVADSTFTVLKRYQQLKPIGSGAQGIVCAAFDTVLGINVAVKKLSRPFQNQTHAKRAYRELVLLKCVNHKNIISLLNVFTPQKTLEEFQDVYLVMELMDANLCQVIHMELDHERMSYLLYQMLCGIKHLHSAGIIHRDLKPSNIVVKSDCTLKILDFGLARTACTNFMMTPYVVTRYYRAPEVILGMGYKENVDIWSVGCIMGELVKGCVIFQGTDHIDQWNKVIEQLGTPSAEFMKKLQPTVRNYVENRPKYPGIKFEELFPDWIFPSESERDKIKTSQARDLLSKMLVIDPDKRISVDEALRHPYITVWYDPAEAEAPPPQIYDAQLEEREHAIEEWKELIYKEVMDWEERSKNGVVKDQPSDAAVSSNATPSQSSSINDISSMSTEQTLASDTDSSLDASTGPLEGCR

JNK3 [3] = biological target: T3, JNK3 (Homo sapiens, UniProt P53779); experiment: JNK3 kinase (intrinsic ATPase, Kinase-Glo) assay; assay type: biochemical
T3 sequence (P53779 whole entry): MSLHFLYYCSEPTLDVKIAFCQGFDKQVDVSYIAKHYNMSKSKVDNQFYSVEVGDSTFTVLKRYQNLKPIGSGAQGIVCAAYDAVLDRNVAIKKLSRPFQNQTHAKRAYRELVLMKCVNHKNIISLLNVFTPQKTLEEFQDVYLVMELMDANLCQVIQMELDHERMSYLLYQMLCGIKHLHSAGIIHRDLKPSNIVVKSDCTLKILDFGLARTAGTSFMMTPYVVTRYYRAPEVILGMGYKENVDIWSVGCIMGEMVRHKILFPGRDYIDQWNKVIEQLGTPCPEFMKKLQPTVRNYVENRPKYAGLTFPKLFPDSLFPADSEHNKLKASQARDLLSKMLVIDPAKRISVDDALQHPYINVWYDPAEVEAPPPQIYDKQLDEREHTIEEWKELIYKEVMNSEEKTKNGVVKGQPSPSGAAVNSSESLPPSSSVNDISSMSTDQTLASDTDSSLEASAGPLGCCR

JNK1 [4] = biological target: T1, JNK1; experiment: Promega NanoBRET intracellular target engagement (tracer K10 displacement), JNK1; assay type: cell-based
JNK2 [5] = biological target: T2, JNK2; experiment: Promega NanoBRET intracellular target engagement (tracer K10 displacement), JNK2; assay type: cell-based
JNK3 [6] = biological target: T3, JNK3; experiment: Promega NanoBRET intracellular target engagement (tracer K10 displacement), JNK3; assay type: cell-based
[7] = In vitro metabolism in mouse liver microsomes; conditions: for half-life: mouse, microsomes
Method: (§1) The target product profile seeks to deliver JNK inhibitor as a once daily oral administration. To prioritize compounds for further development, in vitro metabolism of several CDD JNK inhibitors were determined to approximate the plasma half-life and the rate of metabolism of the compounds in vivo.

[8] = In vitro metabolism in human liver microsomes; conditions: human, microsomes
Method: as §1

Kd (JNK1 [1])	Kd (JNK2 [2]; Table 3a, read-out: Kd JNK2)	Kd (JNK3 [3]; Table 3a, read-out: Kd JNK3)	IC50 (JNK1 [4])	IC50 (JNK2 [5])	IC50 (JNK3 [6])	solubility (Solubility)	half-life [7]	half-life [8]	Kd (JNK2 [2])	Kd (JNK3 [3])	metabolism in liver microsomes ([7]; liver microsomes, in words)	SMILES
0.36 ± 0.11 nM	1.63 ± 0.14 nM	1.41 ± 0.07 nM	830 nM	900 nM	1500 nM	1 µM (≈ 0.367 µg/mL)	–	–	–	–	–	Cc1ccc(NC(=O)c2ccn3ncc(-c4cnc5[nH]ccc5c4)c3c2)cc1 [CDD-2288, 3-(1H-pyrrolo[2,3-b]pyridin-5-yl)-N-(p-tolyl)pyrazolo[1,5-a]pyridine-5-carboxamide]
0.28 ± 0.05 nM	4.53 ± 0.55 nM	1.67 ± 0.06 nM	1600 nM	1460 nM	1130 nM	–	0.967 h	3.22 h	–	–	–	CN(C)C(=O)c1cc(O)cc(NC(=O)c2cc3c(-c4cnc5[nH]ccc5c4)cccc3s2)c1 [CDD-2937, N-(3-(dimethylcarbamoyl)-5-hydroxyphenyl)-4-(1H-pyrrolo[2,3-b]pyridin-5-yl)benzo[b]thiophene-2-carboxamide]
0.28 ± 0.12 nM	1.27 ± 0.14 nM	1.18 ± 0.09 nM	1400 nM	890 nM	1200 nM	2.3 µM (≈ 0.87 µg/mL)	0.517 h	0.128 h	–	–	–	Cc1ccc(NC(=O)c2ccn3ncc(-c4cncc5ccccc45)c3c2)cc1 [CDD-2325, 3-(isoquinolin-4-yl)-N-(p-tolyl)pyrazolo[1,5-a]pyridine-5-carboxamide]
1.52 ± 0.3 nM	–	–	6300 nM	2000 nM	29300 nM	0.4 µM (≈ 0.183 µg/mL)	–	–	5.37 ± 0.42 nM	3.53 nM	–	CNC(=O)c1cc(NC(=O)c2cc3c(-c4cnc5[nH]ccc5c4)cccc3s2)ccc1OC [CDD-2490, N-(4-methoxy-3-(methylcarbamoyl)phenyl)-4-(1H-pyrrolo[2,3-b]pyridin-5-yl)benzo[b]thiophene-2-carboxamide]
3.1 ± 0.8 nM	3.08 ± 0.16 nM	4.34 ± 0.6 nM	66000 nM	13500 nM	34800 nM	124 µM (≈ 49.2 µg/mL)	2.1 h	1.99 h	–	–	–	CNCc1ccc(NC(=O)c2ccc3ncc(-c4cnc5[nH]ccc5c4)n3c2)cc1 [CDD-2488, N-(4-((methylamino)methyl)phenyl)-3-(1H-pyrrolo[2,3-b]pyridin-5-yl)imidazo[1,2-a]pyridine-6-carboxamide]
0.57 ± 0.1 nM	1.93 ± 0.14 nM	0.54 ± 0.09 nM	1200 nM	820 nM	1200 nM	4.9 µM (≈ 2.58 µg/mL)	0.272 h	0.267 h	–	–	–	COc1ccc(NC(=O)c2cc3c(-c4cnc5[nH]ccc5c4)cccc3s2)cc1C(=O)N1CCN(C)CC1 [CDD-2636, N-(4-methoxy-3-(4-methylpiperazine-1-carbonyl)phenyl)-4-(1H-pyrrolo[2,3-b]pyridin-5-yl)benzo[b]thiophene-2-carboxamide]
3.74 ± 0.93 nM	14.8 ± 0.95 nM	9 ± 2.4 nM	14800 nM	6100 nM	23000 nM	40.3 µM (≈ 12.4 µg/mL)	–	–	–	–	–	CNC(=O)c1cc2c(-c3cnc4[nH]ccc4c3)cccc2s1 [CDD-2627, N-methyl-4-(1H-pyrrolo[2,3-b]pyridin-5-yl)benzo[b]thiophene-2-carboxamide]
3.58 ± 0.47 nM	11.4 ± 1 nM	5.17 ± 0.33 nM	–	10900 nM	31700 nM	1.5 µM (≈ 0.686 µg/mL)	0.98 h	8.85 h	–	–	–	CN(C)C(=O)c1cc(NC(=O)c2cc3c(-c4cnc5[nH]ncc5c4)cccc3s2)ccc1O [CDD-3018, N-(3-(dimethylcarbamoyl)-4-hydroxyphenyl)-4-(1H-pyrazolo[3,4-b]pyridin-5-yl)benzo[b]thiophene-2-carboxamide]
2.34 ± 0.3 nM	6.84 ± 0.81 nM	3.18 ± 0.14 nM	3500 nM	3200 nM	8200 nM	0.3 µM (≈ 0.111 µg/mL)	0.773 h	3.57 h	–	–	–	O=C(Nc1cncnc1)c1cc2c(-c3cnc4[nH]ccc4c3)cccc2s1 [CDD-3015, N-(pyrimidin-5-yl)-4-(1H-pyrrolo[2,3-b]pyridin-5-yl)benzo[b]thiophene-2-carboxamide]
0.58 ± 0.08 nM	5.74 ± 0.5 nM	2.92 ± 0.21 nM	789 nM	738 nM	960 nM	0.4 µM (≈ 0.187 µg/mL)	1.02 h	2.93 h	–	–	–	O=C(Nc1ccc(O)c(C(=O)N2CCC2)c1)c1cc2c(-c3cnc4[nH]ccc4c3)cccc2s1 [CDD-3014, N-(3-(azetidine-1-carbonyl)-4-hydroxyphenyl)-4-(1H-pyrrolo[2,3-b]pyridin-5-yl)benzo[b]thiophene-2-carboxamide]
0.52 ± 0.12 nM	4.84 ± 0.49 nM	2.08 ± 0.18 nM	3800 nM	3600 nM	6000 nM	2 µM (≈ 0.883 µg/mL)	1.11 h	9.13 h	–	–	–	CN(C)C(=O)c1cc(NC(=O)c2cc3c(-c4cnc5[nH]ccc5c4)cccc3s2)ccn1 [CDD-3012, 4-(4-(1H-pyrrolo[2,3-b]pyridin-5-yl)benzo[b]thiophene-2-carboxamido)-N,N-dimethylpicolinamide]
1.69 ± 0.39 nM	12.5 ± 0.68 nM	6.56 ± 0.85 nM	7300 nM	5400 nM	5900 nM	11.1 µM (≈ 3.23 µg/mL)	0.125 h	0.608 h	–	–	–	CNC(=O)c1ccn2ncc(-c3cnc4[nH]ccc4c3)c2c1 [CDD-2574, N-methyl-3-(1H-pyrrolo[2,3-b]pyridin-5-yl)pyrazolo[1,5-a]pyridine-5-carboxamide]
0.39 ± 0.12 nM	2.23 ± 0.12 nM	2.7 ± 0.29 nM	254 nM	228 nM	235 nM	–	2.18 h	5.97 h	–	–	–	Cc1c[nH]c2ncc(-c3cccc4sc(C(=O)Nc5ccc(O)c(C(=O)N(C)C)c5)cc34)cc12 [CDD-3017, N-(3-(dimethylcarbamoyl)-4-hydroxyphenyl)-4-(3-methyl-1H-pyrrolo[2,3-b]pyridin-5-yl)benzo[b]thiophene-2-carboxamide]
0.68 ± 0.08 nM	2.47 ± 0.25 nM	1.63 ± 0.26 nM	430 nM	230 nM	149 nM	1.6 µM (≈ 0.769 µg/mL)	0.0583 h	0.303 h	–	–	–	O=C(Nc1cccc(C(=O)N2CCCCC2)c1)c1cc2c(-c3cnc4[nH]ccc4c3)cccc2s1 [CDD-2630, N-(3-(piperidine-1-carbonyl)phenyl)-4-(1H-pyrrolo[2,3-b]pyridin-5-yl)benzo[b]thiophene-2-carboxamide]
1.52 ± 0.15 nM	12.2 ± 1.3 nM	2.68 ± 0.2 nM	4910 nM	4200 nM	5300 nM	–	1.92 h	3.43 h	–	–	–	CN(C)C(=O)c1cc(NC(=O)c2cc3c(-c4cnc5[nH]ccc5c4)cccc3o2)ccc1O [CDD-2855, N-(3-(dimethylcarbamoyl)-4-hydroxyphenyl)-4-(1H-pyrrolo[2,3-b]pyridin-5-yl)benzofuran-2-carboxamide]
0.17 ± 0.05 nM	1.28 ± 0.15 nM	0.81 ± 0.05 nM	156 nM	156 nM	124 nM	3.2 µM (≈ 1.55 µg/mL)	0.53 h	1.92 h	–	–	rapidly metabolized	COc1ccc(NC(=O)c2cc3c(-c4cnc5[nH]cc(C)c5c4)cccc3s2)cc1C(=O)N(C)C [CDD-2731, N-(3-(dimethylcarbamoyl)-4-methoxyphenyl)-4-(3-methyl-1H-pyrrolo[2,3-b]pyridin-5-yl)benzo[b]thiophene-2-carboxamide]
1.2 ± 0.16 nM	6.5 ± 0.63 nM	1.93 ± 0.14 nM	1000 nM	1000 nM	781 nM	–	0.335 h	0.918 h	–	–	–	Cc1ccc(NC(=O)c2cc3c(-c4cnc5[nH]ccc5c4)cccc3s2)cc1C(=O)N(C)C [CDD-2729, N-(3-(dimethylcarbamoyl)-4-methylphenyl)-4-(1H-pyrrolo[2,3-b]pyridin-5-yl)benzo[b]thiophene-2-carboxamide]
1.62 ± 0.31 nM	–	–	702 nM	780 nM	1140 nM	–	1.15 h	4.55 h	9.09 ± 0.53 nM	3.2 nM	–	NC(=O)c1cccc(NC(=O)c2cc3c(-c4cnc5[nH]ccc5c4)cccc3s2)c1 [CDD-2936, N-(3-carbamoylphenyl)-4-(1H-pyrrolo[2,3-b]pyridin-5-yl)benzo[b]thiophene-2-carboxamide]
